System: Brassica plants comprising mutant AHAS alleles
Test: Field trial, pre-planting treatment (0, 10, 20, 30 g a.i./ha), two locations in Canada: ERG, EST1, EST2, PPTOX, VIG1, VIG2, VIG3 scores
Format: in vivo, Brassica napus
Conditions: for establishment (EST1) score Av, 14 days after sowing / emergence (ERG) score Av: AHAS1 WT
Excerpt: Tests were set up and conducted to asses the growth and performance of plants comprising AHAS full knock-out alleles, and to further analyze the correlation between the presence of full knockout and missense AHAS genes in Brassica plants and plant growth and herbicide tolerance of the Brassica plants in the field. To this end, the Brassica plants identified in Example 1 and 2 were backcrossed two times with an elite parent line, and subsequently selfed twice to obtain homozygous plants (BC2S2). Plants were grown as row plots in a split plot design with three replicates (main plots=herbicide treatments, subplots=genotypes) at two locations in Canada. Treatment pre-planting was carried out on the soil about two days before sowing with a dose of 0 (treatment A), 10 (treatment B), 20 (treatment C) or 30 (treatment D) g a.i./ha of thiencarbazone methyl. Herbicide tolerance was measured by scoring for different parameters. The parameter emergence (ERG) was scored at the cotyledon stage on a scale 1-9, where 1 means late emergence and 9 means early emergence. Establishment was scored 14 days after sowing (EST1) and 21 days after sowing (EST2). Scores were from 1 to 9, where 1 is the worst establishment (least plants that emerged), and 9 is the best establishment (most plants emerged). Phytotoxicity (PPTOX) was determined after establishment. Plants were evaluated on a scale of 1 to 9, where 1=completely yellowing, 5=50% of plant is yellow and 9=no yellowing. The vigor scores (see above) were determined at 1-2 leaf stage (VIG1), 7 days after VIG1 (VIG2) and 14 days after VIG1 (VIG3). The average values (Av) and standard deviations (SD) of the scores for the different parameters are represented in Table 7a-g.
Further, the contribution of the knock-out allele to herbicide tolerance conferred by the missense allele was calculated. First, the scores were corrected for a possible effect of the growth per se, independent of herbicide treatment. To this end, the scores for treatments B, C and D were divided by the scores for treatment A for the same genotype and for the same parameter (corrected herbicide tolerance scores). Next, the effect of the knock-out allele to these corrected herbicide tolerance scores obtained by the missense allele was calculated. Therefore, the corrected herbicide tolerance scores for the missense—knock-out allele combination was divided by the corrected herbicide tolerance scores for the missense allele—wild-type combination. In case the knock-out allele has no effect on herbicide tolerance conferred by the missense allele, this ratio should be 1. In case the knock-out allele positively contributes to the herbicide tolerance conferred by the missense allele, this ratio should be higher than 1. The results for the contribution of the knock-out allele to herbicide tolerance conferred by the missense allele as calculated above are shown in table 8.

[1] = AHAS3 HETO111 (HETO108+HETO111 series), treatment B 10 g a.i./ha pre-planting, Location B
[2] = AHAS3 HETO111 (HETO108+HETO111 series), treatment C 20 g a.i./ha pre-planting, Location A
[3] = AHAS3 HETO111 (HETO108+HETO111 series), treatment C 20 g a.i./ha pre-planting, Location B
[4] = AHAS3 HETO111 (HETO108+HETO111 series), treatment D 30 g a.i./ha pre-planting, Location A
[5] = AHAS3 HETO111 (HETO108+HETO111 series), treatment D 30 g a.i./ha pre-planting, Location B
[6] = AHAS3 HETO111 (HETO112+HETO111 series), treatment B 10 g a.i./ha pre-planting, Location A
[7] = AHAS3 HETO111 (HETO112+HETO111 series), treatment B 10 g a.i./ha pre-planting, Location B
[8] = AHAS3 HETO111 (HETO112+HETO111 series), treatment C 20 g a.i./ha pre-planting, Location A
[9] = AHAS3 HETO111 (HETO112+HETO111 series), treatment C 20 g a.i./ha pre-planting, Location B
[10] = AHAS3 HETO111 (HETO112+HETO111 series), treatment D 30 g a.i./ha pre-planting, Location A
[11] = AHAS3 HETO111 (HETO112+HETO111 series), treatment D 30 g a.i./ha pre-planting, Location B
[12] = AHAS3 WT (HETO108+HETO104 series), treatment B 10 g a.i./ha pre-planting, Location A
[13] = AHAS3 WT (HETO108+HETO104 series), treatment B 10 g a.i./ha pre-planting, Location B
[14] = AHAS3 WT (HETO108+HETO104 series), treatment C 20 g a.i./ha pre-planting, Location A
[15] = AHAS3 WT (HETO108+HETO104 series), treatment C 20 g a.i./ha pre-planting, Location B
[16] = AHAS3 WT (HETO108+HETO104 series), treatment D 30 g a.i./ha pre-planting, Location A
[17] = AHAS3 WT (HETO108+HETO104 series), treatment D 30 g a.i./ha pre-planting, Location B
[18] = AHAS3 WT (HETO108+HETO111 series), treatment B 10 g a.i./ha pre-planting, Location A
[19] = AHAS3 WT (HETO108+HETO111 series), treatment B 10 g a.i./ha pre-planting, Location B
[20] = AHAS3 WT (HETO108+HETO111 series), treatment C 20 g a.i./ha pre-planting, Location A
[21] = AHAS3 WT (HETO108+HETO111 series), treatment C 20 g a.i./ha pre-planting, Location B
[22] = AHAS3 WT (HETO108+HETO111 series), treatment D 30 g a.i./ha pre-planting, Location A
[23] = AHAS3 WT (HETO108+HETO111 series), treatment D 30 g a.i./ha pre-planting, Location B
[24] = AHAS3 WT (HETO112+HETO111 series), treatment B 10 g a.i./ha pre-planting, Location A
[25] = AHAS3 WT (HETO112+HETO111 series), treatment B 10 g a.i./ha pre-planting, Location B
[26] = AHAS3 WT (HETO112+HETO111 series), treatment C 20 g a.i./ha pre-planting, Location A
[27] = AHAS3 WT (HETO112+HETO111 series), treatment C 20 g a.i./ha pre-planting, Location B
[28] = AHAS3 WT (HETO112+HETO111 series), treatment D 30 g a.i./ha pre-planting, Location A
[29] = AHAS3 WT (HETO112+HETO111 series), treatment D 30 g a.i./ha pre-planting, Location B

How did the “establishment (EST1) score Av, 14 days after sowing” value (from here on “establishment (EST1) score Av”) (AHAS3 HETO111 (HETO108+HETO111 series), treatment B 10 g a.i./ha pre-planting, Location A) turn out when `COC(=O)c1csc(C)c1S(=O)(=O)NC(=O)n1nc(OC)n(C)c1=O` [thiencarbazone-methyl, methyl 4-[(4,5-dihydro-3-methoxy-4-methyl-5-oxo-1H-1,2,4-triazol-1-yl)carbonylsulfamoyl]-5-methylthiophene-3-carboxylate] was run?
The value was 5.00.

And the “emergence (ERG) score Av” value [1]?
Its value is 5.00.

What about the “establishment (EST1) score Av” value [1] of the same molecule?
The value was 6.00.

What about the “emergence (ERG) score Av” value [2] of the same molecule?
Its value is 4.67.

And the “establishment (EST1) score Av” value [2]?
Its value is 5.33.

And the “emergence (ERG) score Av” value [3]?
Its value is 4.00.

And the “establishment (EST1) score Av” value [3]?
Its value is 4.67.

What about the “emergence (ERG) score Av” value [4] of the same molecule?
The value was 4.33.

And the “establishment (EST1) score Av” value [4]?
The value was 4.33.

What about the “emergence (ERG) score Av” value [5] of the same molecule?
Its value is 4.00.

And the “establishment (EST1) score Av” value [5]?
Its value is 4.33.

And the “emergence (ERG) score Av” value [6]?
The value was 5.33.

What about the “establishment (EST1) score Av” value [6] of the same molecule?
The value was 5.67.

What about the “emergence (ERG) score Av” value [7] of the same molecule?
The value was 4.67.

What about the “establishment (EST1) score Av” value [7] of the same molecule?
The value was 6.00.

What about the “emergence (ERG) score Av” value [8] of the same molecule?
Its value is 4.33.

And the “establishment (EST1) score Av” value [8]?
The value was 4.67.

What about the “emergence (ERG) score Av” value [9] of the same molecule?
The value was 4.67.

What about the “establishment (EST1) score Av” value [9] of the same molecule?
Its value is 4.67.

And the “emergence (ERG) score Av” value [10]?
Its value is 4.33.

And the “establishment (EST1) score Av” value [10]?
The value was 4.33.

What about the “emergence (ERG) score Av” value [11] of the same molecule?
Its value is 3.67.

What about the “establishment (EST1) score Av” value [11] of the same molecule?
The value was 4.00.

And the “emergence (ERG) score Av” value [12]?
The value was 1.00.

And the “establishment (EST1) score Av” value [12]?
The value was 1.00.

What about the “emergence (ERG) score Av” value [13] of the same molecule?
The value was 3.00.

What about the “establishment (EST1) score Av” value [13] of the same molecule?
Its value is 4.33.

And the “emergence (ERG) score Av” value [14]?
Its value is 1.00.

What about the “establishment (EST1) score Av” value [14] of the same molecule?
Its value is 1.00.

What about the “emergence (ERG) score Av” value [15] of the same molecule?
The value was 1.67.

And the “establishment (EST1) score Av” value [15]?
The value was 3.67.

What about the “emergence (ERG) score Av” value [16] of the same molecule?
Its value is 1.00.

What about the “establishment (EST1) score Av” value [16] of the same molecule?
The value was 1.00.

What about the “emergence (ERG) score Av” value [17] of the same molecule?
The value was 1.33.

What about the “establishment (EST1) score Av” value [17] of the same molecule?
Its value is 1.33.

What about the “emergence (ERG) score Av” value [18] of the same molecule?
The value was 2.33.

And the “establishment (EST1) score Av” value [18]?
Its value is 2.67.

What about the “emergence (ERG) score Av” value [19] of the same molecule?
The value was 3.33.

And the “establishment (EST1) score Av” value [19]?
The value was 4.33.

And the “emergence (ERG) score Av” value [20]?
Its value is 1.00.

And the “establishment (EST1) score Av” value [20]?
The value was 1.00.

What about the “emergence (ERG) score Av” value [21] of the same molecule?
The value was 2.33.

And the “establishment (EST1) score Av” value [21]?
The value was 4.00.

What about the “emergence (ERG) score Av” value [22] of the same molecule?
Its value is 1.00.

And the “establishment (EST1) score Av” value [22]?
The value was 1.00.

What about the “emergence (ERG) score Av” value [23] of the same molecule?
The value was 1.33.

What about the “establishment (EST1) score Av” value [23] of the same molecule?
Its value is 1.00.

What about the “emergence (ERG) score Av” value [24] of the same molecule?
The value was 1.00.

What about the “establishment (EST1) score Av” value [24] of the same molecule?
The value was 1.00.

And the “emergence (ERG) score Av” value [25]?
The value was 3.67.

And the “establishment (EST1) score Av” value [25]?
The value was 5.00.

What about the “emergence (ERG) score Av” value [26] of the same molecule?
The value was 1.00.

And the “establishment (EST1) score Av” value [26]?
The value was 1.00.

And the “emergence (ERG) score Av” value [27]?
Its value is 1.67.

And the “establishment (EST1) score Av” value [27]?
The value was 3.33.

What about the “emergence (ERG) score Av” value [28] of the same molecule?
The value was 1.00.

What about the “establishment (EST1) score Av” value [28] of the same molecule?
The value was 1.00.

What about the “emergence (ERG) score Av” value [29] of the same molecule?
Its value is 1.33.

What about the “establishment (EST1) score Av” value [29] of the same molecule?
Its value is 1.67.

And the “establishment (EST2) score, Av” value (AHAS1 WT/AHAS3 HETO104, 10 g a.i./ha pre-planting (B), Location A)?
Its value is 2.33.

Source: US20120255051A1, “HERBICIDE TOLERANT PLANTS” (priority 2009, published 2012)
